Measured values reported in patent EP4095134A1, “POLYCYCLIC COMPOUNDS FOR THE TREATMENT OF NEUROLOGICAL INDICATIONS” (UCL Business Ltd, priority 2021, dated 2022).

Molecular target: T1, P2Y1 receptor (Homo sapiens, UniProt P47900)
T1 construct: expressed in transfected cells
Test: P2Y1 IP1 accumulation HTRF assay, antagonism of agonist MRS2365 in stably transfected cells
Format: cell-based
Settings: 5nM MRS2365, values rounded to nearest whole number
Experimental: IC50 values were determined using a cell based assay in stably transfected cells overexpressing the P2Y1 receptor. The assay system is a […] (HTRF) assay measuring accumulation of the intracellular messenger inositol monophosphate (IP1), generated intracellularly following activation of P2Y1. Activity of test compounds was generated by measuring antagonism of the increase in IP1 generated by addition of a selective P2Y1 agonist, MRS2365.
P2Y1 overexpressing cells were maintained in T175 flasks. The day before the assay, these cells were split and 20µl cell suspension transferred to each well of white 384-well assay plates at a cell density of 0.5x10^6 cells/mL. Plates were pulse centrifuged, then incubated overnight at 37°C / 5% CO2 prior to assay.
On day of assay, medium was removed from cells and replaced with stimulation buffer. Compounds were prepared in 100% DMSO for addition to cells using the Tecan D300e digital dispenser; compounds were prepared in cassette heads and added directly to wells in the required concentration range, to give a 10-point concentration response curve from 10µM with semi-log dilutions and a final DMSO concentration of 0.1%. Positive control antagonist curves with standard compounds were included on each plate. Plates were incubated with antagonists for 1 hour prior to addition of 5nM of the agonist MRS2365, dispensed using a Bravo liquid handler. Following agonist addition, plates were incubated for 60 minutes prior to assay. Both incubations were carried out at 37°C / 5% CO2.
For the assay, IP1 accumulation was quantified using the IPOne kit according to manufacturer's instructions. In short, a standard curve was prepared for IP 1 quantification, and cells lysed using kit lysis buffer. Assay reagents were added to the lysates, and incubated for 1 hour at room temperature without spinning or shaking. Plates were analysed on a BMG Pherastar plate reader, and IP1 signal generated in cells interpolated from the standard curve.
For all reported results, N is greater than or equal to 4. An individual N refers to one assay run with a single weighing of compound. A minimum of two assay runs were performed for each of two independent weighings of compound. Results (racemic)

T1 sequence (P47900 whole entry): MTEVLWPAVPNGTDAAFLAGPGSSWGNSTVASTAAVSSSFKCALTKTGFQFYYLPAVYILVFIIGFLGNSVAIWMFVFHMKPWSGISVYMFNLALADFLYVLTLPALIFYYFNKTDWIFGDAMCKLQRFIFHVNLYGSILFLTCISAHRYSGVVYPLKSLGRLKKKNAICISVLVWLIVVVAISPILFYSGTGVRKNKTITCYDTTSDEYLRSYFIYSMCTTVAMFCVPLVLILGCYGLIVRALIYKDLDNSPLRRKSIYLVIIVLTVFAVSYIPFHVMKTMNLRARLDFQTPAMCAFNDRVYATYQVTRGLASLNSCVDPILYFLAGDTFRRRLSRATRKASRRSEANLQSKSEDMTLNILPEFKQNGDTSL

| SMILES | IC50 (racemic, N >= 4) [nM] | IC50 (single enantiomer) [nM] |
| --- | --- | --- |
| O=C(Nc1ccc(F)cc1)Nc1cccnc1Oc1ccccc1C1(C(F)(F)F)CCO1 (racemic) [S53, 1-(4-fluorophenyl)-3-(2-(2-(2-(trifluoromethyl)oxetan-2-yl)phenoxy)pyridin-3-yl)urea] | 522 |  |
| Cc1ccc(NC(=O)Nc2ccc(F)cc2)c(Oc2ccc(F)cc2C2(C(F)(F)F)CCO2)n1 (racemic) [S48, 1-(2-(4-fluoro-2-(2-(trifluoromethyl)oxetan-2-yl)phenoxy)-6-methylpyridin-3-yl)-3-(4-fluorophenyl)urea] | 408 |  |
| O=C(Nc1ccc(C(F)F)cc1)Nc1cccnc1Oc1ccccc1C1(C(F)(F)F)CCO1 (racemic) [S39, 1-(4-(difluoromethyl)phenyl)-3-(2-(2-(2-(trifluoromethyl)oxetan-2-yl)phenoxy)pyridin-3-yl)urea] | 259 |  |
| COc1ccc(NC(=O)Nc2ccc(C)nc2Oc2ccc(F)cc2C2(C(F)(F)F)CCO2)cn1 (racemic) [S75, 1-(2-(4-fluoro-2-(2-(trifluoromethyl)oxetan-2-yl)phenoxy)-6-methylpyridin-3-yl)-3-(6-methoxypyridin-3-yl)urea] | 2650 |  |
| O=C(Nc1ccc(OC(F)F)cc1)Nc1cccnc1Oc1ccccc1C1(C(F)(F)F)CCO1 (racemic) [S43] | 334 |  |
| Cc1ccc(NC(=O)Nc2ccc(OC(F)(F)F)cc2)c(Oc2ccccc2C2(C(F)(F)F)CCO2)n1 (racemic) [S7, 1-(6-methyl-2-(2-(2-(trifluoromethyl)oxetan-2-yl)phenoxy)pyridin-3-yl)-3-(4-(trifluoromethoxy)phenyl)urea] | 55 |  |
| Cc1ccc(NC(=O)Nc2ccc(Cl)cc2F)c(Oc2ccccc2[C@]2(C(F)(F)F)CCO2)n1 (racemic) [S109] |  | 126 |
| Cc1ccc(NC(=O)Nc2ccc(OC3CC(F)(F)C3)cc2)c(Oc2ccccc2C2(C(F)(F)F)CCO2)n1 (racemic) [S15, 1-(4-(3,3-difluorocyclobutoxy)phenyl)-3-(6-methyl-2-(2-(2-(trifluoromethyl)oxetan-2-yl)phenoxy)pyridin-3-yl)urea] | 105 |  |
| Cc1cccc(Oc2ncccc2NC(=O)Nc2ccc(OC(F)(F)F)cc2)c1C1COC1 (racemic) [S88] | 1160 |  |
| O=C(Nc1ccc(Cl)cc1)Nc1cccnc1Oc1ccccc1C1(C(F)(F)F)CCO1 (racemic) [S27, 1-(4-chlorophenyl)-3-(2-(2-(2-(trifluoromethyl)oxetan-2-yl)phenoxy)pyridin-3-yl)urea] | 153 |  |
| COc1ccc(F)c(NC(=O)Nc2cccnc2Oc2ccc(F)cc2C2(C(F)(F)F)CCO2)c1 (racemic) [S57, 1-(2-(4-fluoro-2-(2-(trifluoromethyl)oxetan-2-yl)phenoxy)pyridin-3-yl)-3-(2-fluoro-5-methoxyphenyl)urea] | 589 |  |
| CC(C)(c1ccc(NC(=O)Nc2cccnc2Oc2ccccc2[C@@]2(C(F)(F)F)CCO2)cc1)C(F)(F)F [S101] |  | 48 |
| Cc1ccc(NC(=O)Nc2ccc(C(C)C)cc2F)c(Oc2ccccc2[C@]2(C(F)(F)F)CCO2)n1 [S123] |  | 33 |
| Cc1ccc(NC(=O)Nc2ccc(OC(F)(F)F)cc2F)c(Oc2ccccc2[C@]2(C(F)(F)F)CCO2)n1 (racemic) [S104] |  | 68 |
| CN1C(=O)CC1(c1ccccc1Oc1ncccc1NC(=O)Nc1ccc(OC(F)(F)F)cc1)C(F)F (racemic) [S83] | 4710 |  |
| Cc1ccc(Nc2nnc(C(F)F)s2)c(Oc2ccc(F)cc2C2(C(F)(F)F)CCO2)n1 (racemic) [S76] | 3050 |  |
| O=C(Nc1ccc(OC(F)(F)F)cc1F)Nc1cccnc1Oc1ccccc1[C@@]1(C(F)(F)F)CCO1 [S112] |  | 38 |
| Cn1c(C(F)F)nc2ccc(NC(=O)Nc3cccnc3Oc3ccccc3C3(C(F)(F)F)CCO3)cc21 (racemic) [S85, 1-(2-(difluoromethyl)-1-methyl-1H-benzo[d]imidazol-6-yl)-3-(2-(2-(2-(trifluoromethyl)oxetan-2-yl)phenoxy)pyridin-3-yl)urea] | 5580 |  |
| Cc1ccc(NC(=O)Nc2ccc(OC(F)(F)F)cc2F)c(Oc2ccccc2[C@@]2(C(F)(F)F)CCO2)n1 [S113] |  | 34 |

| SMILES | IC50 (racemic, N >= 4) [nM] | IC50 (single enantiomer) [nM] |
| --- | --- | --- |
| O=C(Nc1ccc(OC(F)(F)F)cc1F)Nc1cccnc1Oc1ccc(F)cc1C1(C(F)(F)F)CCO1 (racemic) [S21, 1-(2-(4-fluoro-2-(2-(trifluoromethyl)oxetan-2-yl)phenoxy)pyridin-3-yl)-3-(2-fluoro-4-(trifluoromethoxy)phenyl)urea] | 140 |  |
| O=C(Nc1ccc(OC(F)(F)F)cc1)Nc1cccnc1Oc1cccc(C2(C(F)(F)F)CCO2)c1 (racemic) [S90, 1-(4-(trifluoromethoxy)phenyl)-3-(2-(3-(2-(trifluoromethyl)oxetan-2-yl)phenoxy)pyridin-3-yl)urea] | 322 |  |
| O=C(Nc1ccc(OC(F)(F)F)cc1F)Nc1cccnc1Oc1ccccc1C1(C(F)(F)F)CCO1 (racemic) [S9, 1-(2-fluoro-4-(trifluoromethoxy)phenyl)-3-(2-(2-(2-(trifluoromethyl)oxetan-2-yl)phenoxy)pyridin-3-yl)urea] | 66 |  |
| Cc1ncc(NC(=O)Nc2ccc(Cl)cc2)c(Oc2ccccc2C2(C(F)(F)F)CCO2)n1 (racemic) [S69, 1-(4-chlorophenyl)-3-(2-methyl-4-(2-(2-(trifluoromethyl)oxetan-2-yl)phenoxy)pyrimidin-5-yl)urea] | 1410 |  |
| Fc1ccc(Oc2ncccc2Nc2nc3ccc(C(F)(F)F)cc3[nH]2)c(C2(C(F)(F)F)CCO2)c1 (racemic) [S97] | 1010 |  |
| CC(C)c1ccc(NC(=O)Nc2cccnc2Oc2ccccc2[C@@]2(C(F)(F)F)CCO2)c(F)c1 [S124] |  | 20 |
| O=C(Nc1ccc(OC(F)(F)F)cc1)Nc1cccnc1Oc1cc(F)ccc1C1(C(F)(F)F)CCO1 (racemic) [S31] | 168 |  |
| Cc1ccc(NC(=O)Nc2ccc3c(c2)OC(F)(F)O3)c(Oc2ccc(F)cc2C2(C(F)(F)F)CCO2)n1 (racemic) [S41, 1-(2,2-difluorobenzo[d][1,3]dioxol-5-yl)-3-(2-(4-fluoro-2-(2-(trifluoromethyl)oxetan-2-yl)phenoxy)-6-methylpyridin-3-yl)urea] | 287 |  |
| Cc1ccc(NC(=O)Nc2ccc(Cl)cc2F)c(Oc2ccccc2C2(C(F)(F)F)CCO2)n1 (racemic) [S4, 1-(4-chloro-2-fluorophenyl)-3-(6-methyl-2-(2-(2-(trifluoromethyl)oxetan-2-yl)phenoxy)pyridin-3-yl)urea] | 43 |  |
| [2H]C([2H])([2H])Oc1ccc(NC(=O)Nc2cccnc2Oc2ccccc2C2(C(F)(F)F)CCO2)c(F)c1 (racemic) [S52, 1-(2-fluoro-4-(methoxy-d3)phenyl)-3-(2-(2-(2-(trifluoromethyl)oxetan-2-yl)phenoxy)pyridin-3-yl)urea] | 500 |  |
| O=C(Nc1ccc(C(F)(F)F)nc1)Nc1cccnc1Oc1ccccc1C1(C(F)(F)F)CCO1 (racemic) [S71, 1-(2-(2-(2-(trifluoromethyl)oxetan-2-yl)phenoxy)pyridin-3-yl)-3-(6-(trifluoromethyl)pyridin-3-yl)urea] | 1480 |  |
| COc1ncc(NC(=O)Nc2cccnc2Oc2ccc(F)cc2C2(C(F)(F)F)CCO2)cc1F (racemic) [S68, 1-(2-(4-fluoro-2-(2-(trifluoromethyl)oxetan-2-yl)phenoxy)pyridin-3-yl)-3-(5-fluoro-6-methoxypyridin-3-yl)urea] | 1330 |  |
| O=C(Nc1ccc(Cl)cn1)Nc1cccnc1Oc1ccccc1C1(C(F)(F)F)CCO1 (racemic) [S46, 1-(5-chloropyridin-2-yl)-3-(2-(2-(2-(trifluoromethyl)oxetan-2-yl)phenoxy)pyridin-3-yl)urea] | 384 |  |
| O=C(Nc1ccc2c(c1)OCO2)Nc1cccnc1Oc1ccccc1C1(C(F)(F)F)CCO1 (racemic) [S70, 1-(benzo[d][1,3]dioxol-5-yl)-3-(2-(2-(2-(trifluoromethyl)oxetan-2-yl)phenoxy)pyridin-3-yl)urea] | 1450 |  |
| O=C(Nc1cccc(OC(F)(F)F)c1)Nc1cccnc1Oc1ccc(F)cc1C1(C(F)(F)F)CCO1 (racemic) [S49, 1-(2-(4-fluoro-2-(2-(trifluoromethyl)oxetan-2-yl)phenoxy)pyridin-3-yl)-3-(3-(trifluoromethoxy)phenyl)urea] | 419 |  |
| Cc1ccc(NC(=O)Nc2ccc(Cl)cc2F)c(Oc2ccccc2[C@@]2(C(F)(F)F)CCO2)n1 [S114] |  | 41 |
| O=C(Nc1ccc(Cl)cc1)Nc1ccc(Cl)nc1Oc1ccccc1C1(C(F)(F)F)CCO1 (racemic) [S24, 1-(6-chloro-2-(2-(2-(trifluoromethyl)oxetan-2-yl)phenoxy)pyridin-3-yl)-3-(4-chlorophenyl)urea] | 145 |  |
| O=C(Nc1ccc(OC2CC(F)(F)C2)cc1)Nc1cccnc1Oc1ccccc1C1(C(F)(F)F)CCO1 (racemic) [S36, 1-(4-(3,3-difluorocyclobutoxy)phenyl)-3-(2-(2-(2-(trifluoromethyl)oxetan-2-yl)phenoxy)pyridin-3-yl)urea] | 207 |  |
